System: 941728-121-R-J1-PDC complex spheroid viability
Test: Anticancer human tumor 941728-121-R-J1-PDC patient-derived lung adenocarcinoma cell line growth inhibition [RAS]
Conditions: for IC50: curve of first compound; for viability, T/C: stronger effect = lower value
Summary of the method: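 Agents were tested in combination matrices in half-log decrements from a top concentration at or near clinical Cmax (10 microM if undetermined). Targets were multi-cell spheroids of tumour lines plus HUVEC and MSC stromal cells.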

[1] = second compound 0.00316 µM, first compound 0.0316 µM
[2] = second compound 0.00316 µM, first compound 0.1 µM
[3] = second compound 0.00316 µM, first compound 0.316 µM
[4] = second compound 0.00316 µM, first compound 1 µM
[5] = second compound 0.00316 µM, first compound 3.16 µM
[6] = second compound 0.00316 µM, first compound 10 µM
[7] = second compound 0.01 µM, first compound 0.0316 µM
[8] = second compound 0.01 µM, first compound 0.1 µM
[9] = second compound 0.01 µM, first compound 0.316 µM
[10] = second compound 0.01 µM, first compound 1 µM
[11] = second compound 0.01 µM, first compound 3.16 µM
[12] = second compound 0.01 µM, first compound 10 µM
[13] = second compound 0.0316 µM, first compound 0.0316 µM
[14] = second compound 0.0316 µM, first compound 0.1 µM
[15] = second compound 0.0316 µM, first compound 0.316 µM
[16] = second compound 0.0316 µM, first compound 1 µM
[17] = second compound 0.0316 µM, first compound 3.16 µM
[18] = second compound 0.0316 µM, first compound 10 µM
[19] = second compound 0.1 µM, first compound 0.0316 µM
[20] = second compound 0.1 µM, first compound 0.1 µM
[21] = second compound 0.1 µM, first compound 0.316 µM
[22] = second compound 0.1 µM, first compound 1 µM
[23] = second compound 0.1 µM, first compound 3.16 µM
[24] = second compound 0.1 µM, first compound 10 µM
[25] = second compound 0.316 µM, first compound 0.0316 µM
[26] = second compound 0.316 µM, first compound 0.1 µM
[27] = second compound 0.316 µM, first compound 0.316 µM
[28] = second compound 0.316 µM, first compound 1 µM
[29] = second compound 0.316 µM, first compound 3.16 µM
[30] = second compound 0.316 µM, first compound 10 µM
[31] = second compound 1 µM, first compound 0.0316 µM
[32] = second compound 1 µM, first compound 0.1 µM
[33] = second compound 1 µM, first compound 0.316 µM
[34] = second compound 1 µM, first compound 1 µM
[35] = second compound 1 µM, first compound 3.16 µM
[36] = second compound 1 µM, first compound 10 µM
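Further: spheroids exposed to compounds for 7 days before readout.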
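Wherever viability, T/C is given: 100% = DMSO vehicle control viability.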

With `CC(C)NCC(C(=O)N1CCN(c2ncnc3c2C(C)CC3O)CC1)c1ccc(Cl)cc1` (stereo unspecified) + C=CC(=O)N1CCN(c2nc(OCC3CCCN3C)nc3c(F)c(-c4nc(N)cc(C)c4C(F)(F)F)c(Cl)cc23)C(C)C1 the IC50 (second compound 0.00316 µM) was < 31.6 nM, the IC50 (second compound 0.01 µM) was < 31.6 nM and the IC50 (second compound 0.0316 µM) was < 31.6 nM. The IC50 (second compound 0.1 µM) was < 31.6 nM, the IC50 (second compound 0.316 µM) was < 31.6 nM and the IC50 (second compound 1 µM) was < 31.6 nM. The viability, T/C [1] was 19.3%, the viability, T/C [2] was 17.8% and the viability, T/C [3] was 16.5%. The viability, T/C [4] was 22.4%, the viability, T/C [5] was 12.7% and the viability, T/C [6] was 8.85%. The viability, T/C [7] was 18%, the viability, T/C [8] was 21.5% and the viability, T/C [9] was 18.3%. It also gave a viability, T/C [10] of 14.3%, a viability, T/C [11] of 13.1% and a viability, T/C [12] of 7.71%. It also gave a viability, T/C [13] of 26.6%, a viability, T/C [14] of 17.3% and a viability, T/C [15] of 16.8%. For the same compound, the viability, T/C [16] was 14.7%, the viability, T/C [17] was 10.8% and the viability, T/C [18] was 11.1%. The viability, T/C [19] was 19.6%, the viability, T/C [20] was 17.1% and the viability, T/C [21] was 17.9%. It also gave a viability, T/C [22] of 15%, a viability, T/C [23] of 10.6% and a viability, T/C [24] of 6.28%. For the same compound, the viability, T/C [25] was 19.6%, the viability, T/C [26] was 16.8% and the viability, T/C [27] was 15.3%. It also gave a viability, T/C [28] of 13.8%, a viability, T/C [29] of 13.5% and a viability, T/C [30] of 8.85%. It also gave a viability, T/C [31] of 17.9%, a viability, T/C [32] of 18.7% and a viability, T/C [33] of 16.8%. For the same compound, the viability, T/C [34] was 12%, the viability, T/C [35] was 12.3% and the viability, T/C [36] was 8.38%.
For `CC(C)n1nc(-c2ccc3oc(N)nc3c2)c2c(N)ncnc21` + C=CC(=O)N1CCN(c2nc(OCC3CCCN3C)nc3c(F)c(-c4nc(N)cc(C)c4C(F)(F)F)c(Cl)cc23)C(C)C1, the IC50 (second compound 0.00316 µM) was < 0.316 nM, the IC50 (second compound 0.01 µM) was < 0.316 nM and the IC50 (second compound 0.0316 µM) was < 0.316 nM. For the same compound, the IC50 (second compound 0.1 µM) was < 0.316 nM, the IC50 (second compound 0.316 µM) was < 0.316 nM and the IC50 (second compound 1 µM) was < 0.316 nM. It also gave a viability, T/C (second compound 0.00316 µM, first compound 0.000316 µM) of 19.5%, a viability, T/C (second compound 0.00316 µM, first compound 0.001 µM) of 21.4% and a viability, T/C (second compound 0.00316 µM, first compound 0.00316 µM) of 19.4%. The viability, T/C (second compound 0.00316 µM, first compound 0.01 µM) was 14.4%, the viability, T/C [1] was 11.6% and the viability, T/C [2] was 9.02%. The viability, T/C (second compound 0.01 µM, first compound 0.000316 µM) was 19.6%, the viability, T/C (second compound 0.01 µM, first compound 0.001 µM) was 21.8% and the viability, T/C (second compound 0.01 µM, first compound 0.00316 µM) was 17.9%. The viability, T/C (second compound 0.01 µM, first compound 0.01 µM) was 14.4%, the viability, T/C [7] was 10.7% and the viability, T/C [8] was 6.76%. For the same compound, the viability, T/C (second compound 0.0316 µM, first compound 0.000316 µM) was 22.7%, the viability, T/C (second compound 0.0316 µM, first compound 0.001 µM) was 17.5% and the viability, T/C (second compound 0.0316 µM, first compound 0.00316 µM) was 19.2%. The viability, T/C (second compound 0.0316 µM, first compound 0.01 µM) was 14.4%, the viability, T/C [13] was 10.2% and the viability, T/C [14] was 7.17%. For the same compound, the viability, T/C (second compound 0.1 µM, first compound 0.000316 µM) was 22.1%, the viability, T/C (second compound 0.1 µM, first compound 0.001 µM) was 18.2% and the viability, T/C (second compound 0.1 µM, first compound 0.00316 µM) was 19.4%. It also gave a viability, T/C (second compound 0.1 µM, first compound 0.01 µM) of 11.9%, a viability, T/C [19] of 10.1% and a viability, T/C [20] of 7.39%. For the same compound, the viability, T/C (second compound 0.316 µM, first compound 0.000316 µM) was 19.4%, the viability, T/C (second compound 0.316 µM, first compound 0.001 µM) was 18% and the viability, T/C (second compound 0.316 µM, first compound 0.00316 µM) was 17.8%. For the same compound, the viability, T/C (second compound 0.316 µM, first compound 0.01 µM) was 14.7%, the viability, T/C [25] was 9.18% and the viability, T/C [26] was 8.16%. It also gave a viability, T/C (second compound 1 µM, first compound 0.000316 µM) of 19.5%, a viability, T/C (second compound 1 µM, first compound 0.001 µM) of 22.9% and a viability, T/C (second compound 1 µM, first compound 0.00316 µM) of 16.6%. It also gave a viability, T/C (second compound 1 µM, first compound 0.01 µM) of 13.4%, a viability, T/C [31] of 11.6% and a viability, T/C [32] of 8.02%.
For `C[C@@H](NC(=O)c1ncnc(N)c1Cl)c1ncc(C(=O)Nc2cc(C(F)(F)F)c(Cl)cn2)s1` + C=CC(=O)N1CCN(c2nc(OCC3CCCN3C)nc3c(F)c(-c4nc(N)cc(C)c4C(F)(F)F)c(Cl)cc23)C(C)C1, the IC50 (second compound 0.00316 µM) was < 31.6 nM, the IC50 (second compound 0.01 µM) was < 31.6 nM and the IC50 (second compound 0.0316 µM) was < 31.6 nM. For the same compound, the IC50 (second compound 0.1 µM) was < 31.6 nM, the IC50 (second compound 0.316 µM) was < 31.6 nM and the IC50 (second compound 1 µM) was < 31.6 nM. The viability, T/C [1] was 21.6%, the viability, T/C [2] was 21% and the viability, T/C [3] was 21.2%. It also gave a viability, T/C [4] of 25.4%, a viability, T/C [5] of 23.1% and a viability, T/C [6] of 20.7%. It also gave a viability, T/C [7] of 26.2%, a viability, T/C [8] of 23.9% and a viability, T/C [9] of 23.3%. The viability, T/C [10] was 27.1%, the viability, T/C [11] was 20.5% and the viability, T/C [12] was 20.2%. It also gave a viability, T/C [13] of 22.3%, a viability, T/C [14] of 22% and a viability, T/C [15] of 20.9%. The viability, T/C [16] was 22%, the viability, T/C [17] was 23.5% and the viability, T/C [18] was 20.4%. The viability, T/C [19] was 26.8%, the viability, T/C [20] was 24.9% and the viability, T/C [21] was 22.5%. The viability, T/C [22] was 23.1%, the viability, T/C [23] was 21.9% and the viability, T/C [24] was 20.9%. The viability, T/C [25] was 20.1%, the viability, T/C [26] was 20.9% and the viability, T/C [27] was 21%. The viability, T/C [28] was 21.6%, the viability, T/C [29] was 24.9% and the viability, T/C [30] was 22.2%. For the same compound, the viability, T/C [31] was 23.4%, the viability, T/C [32] was 30.2% and the viability, T/C [33] was 22.1%. It also gave a viability, T/C [34] of 22.5%, a viability, T/C [35] of 27.3% and a viability, T/C [36] of 22.4%.
